Like-named read-outs stand apart in the source and are kept apart here.
What was measured:
[1] = Plasma pharmacokinetics, 28-day topical ophthalmic dosing in beagle dogs; details: beagle, dog, in vivo
Method: In the study, dogs (3 males and 3 females) received bilateral daily topical administration of 40 μL/eye of 2.0%, 4.0%, or 8.0% as measured in mg/mL (equivalent to 0.8, 1.6, or 3.2 mg CKLP1 per eye) of CKLP1 in phosphate buffered saline. Based on an average male dog weight of 7.9 kg at the start of the study, these doses were equivalent to 0.20 mg/kg, 0.41 mg/kg, or 0.81 mg/kg and based on an average female dog weight of 6.0 kg at the start of the study, these doses were equivalent to 0.27 mg/kg, 0.53 mg/kg, or 1.07 mg/kg. Blood was collected for toxicokinetic analysis pre-dose and at 1, 2, 4, 8, 12, and 24 hours post dosing on days 1 and 28. In addition, 2 animals of each gender were allowed 336 hours (14 days) of recovery time following the final dose, at which point final blood samples were obtained.

[2] = Toxicokinetics after escalating intravenous doses of CKLP1 in beagles; type: in vivo, beagle dog; details: beagle, dog, in vivo, iv
Method: Two beagles (one male and one female) were intravenously injected with escalating doses of CKPL1 (0.05 mg/kg, 0.5 mg/kg, 1.5 mg/kg, 3 mg/kg, and 5 mg/kg) to assess the toxicity of CKLP1. The injection was done through the cephalic vein and CKLP1 was administered in a phosphate buffered saline solution ((0.096% sodium phosphate dibasic, 0.089% sodium dihydrogen orthophosphate monohydrate, 0.83% sodium chloride) pH 6.5±0.1 in sterile water for injection USP). The dosing schedule is shown below in Table 3.
The following parameters and endpoints were evaluated: mortality, clinical observations, body and organ weights, and food consumption. Bioanalytical samples for toxicokinetic parameters (for both CKLP1 and leveromakalim) were collected after each dose level (days 1, 3, 8, 10, and 14) at predose, 1, 3, 6, 8, and 24 hours postdose. Animals were released from the study after completion of the bioanalytical sample collection schedule.
Toxicokinetics (TK) were determined based on the individual exposures for each animal on each sampled study day (days 1, 3, 8, 10, and 14). […] Predose samples had no quantifiable exposure in any animal on any day, with the exception of the female dog on day 10. The predose concentration for the female dog on day 10 was excluded from the TK analysis in order to allow for estimation of the IV C0.

[3] = female, topical or ocular, 3.2 mg
[4] = male, topical or ocular, 1.6 mg

**Q.** For `CC1(C)Oc2ccc(C#N)cc2[C@@H](N2CCCC2=O)[C@@H]1O` [Levcromakalim, levcromakalim, reference compound], which half-life ([1]; mean T1/2 of levcromakalim) is on record?
**A.** 2.06 to 4.9 h

**Q.** And the half-life ([1]; terminal elimination half-life)?
**A.** 2 to 5 h

**Q.** What about the concentration at 336 h ([1]; both sexes) of the same molecule?
**A.** < 0.499 ng/mL

**Q.** What about the AUC(0-inf) ([1]; female, topical or ocular, 0.27 mg/kg) of the same molecule?
**A.** 96.8 ng·h/mL

**Q.** And the AUC(0-inf) [1, 3]?
**A.** 304 ng·h/mL

**Q.** And the t1/2 [1, 3]?
**A.** 2.73 h

**Q.** And the half-life ([1]; female, topical or ocular, 3.2 mg, t1/2)?
**A.** 4.9 h

**Q.** And the AUC(0-inf) ([1]; female, topical or ocular, […])?
**A.** 131 ng·h/mL

**Q.** And the AUC(0-inf) ([1]; male, topical or ocular)?
**A.** 111 ng·h/mL

**Q.** What about the AUC(0-inf) [1, 4] of the same molecule?
**A.** 185 ng·h/mL

**Q.** What about the Tmax [1, 4] of the same molecule?
**A.** 4 h

**Q.** And the AUC(0-inf) ([1]; male, topical or ocular, 3.2 mg)?
**A.** 371 ng·h/mL

**Q.** And the AUC(0-t) ([2]; both sexes, 3 mg/kg, read-out: AUCTlast at MTD, sex-combined)?
**A.** 431 ng·h/mL

**Q.** What about the Cmax ([2]; both sexes, 3 mg/kg, read-out: Cmax at MTD, sex-combined) of the same molecule?
**A.** 35.5 ng/mL

**Q.** What about the AUCTlast ([2]; female, 0.5 mg/kg) of the same molecule?
**A.** 81.3 ng·h/mL

**Q.** What about the T1/2 ([2]; female, 0.5 mg/kg) of the same molecule?
**A.** 10.3 h

**Q.** And the “AUC(0-inf)” value ([2]; female, 1.5 mg/kg)?
**A.** 272 ng·h/mL

**Q.** And the AUCTlast ([2]; female, 1.5 mg/kg)?
**A.** 241 ng·h/mL

**Q.** And the Cmax ([2]; female, 1.5 mg/kg)?
**A.** 15.6 ng/mL

**Q.** And the T1/2 ([2]; female, 1.5 mg/kg)?
**A.** 7.58 h

**Q.** What about the Tmax ([2]; female, 1.5 mg/kg) of the same molecule?
**A.** 3.00 h

**Q.** And the “AUC(0-inf)” value ([2]; female, 3 mg/kg)?
**A.** 404 ng·h/mL

**Q.** And the AUCTlast ([2]; female, 3 mg/kg)?
**A.** 386 ng·h/mL

**Q.** And the Cmax ([2]; female, 3 mg/kg)?
**A.** 28.3 ng/mL

**Q.** What about the T1/2 ([2]; female, 3 mg/kg) of the same molecule?
**A.** 5.07 h

**Q.** And the Tmax ([2]; female, 3 mg/kg)?
**A.** 6.00 h

**Q.** And the AUCTlast ([2]; female, 5 mg/kg)?
**A.** 1040 ng·h/mL

**Q.** What about the T1/2 ([2]; female, 5 mg/kg) of the same molecule?
**A.** 7.82 h

**Q.** What about the AUCTlast ([2]; male, 0.05 mg/kg) of the same molecule?
**A.** 5.04 ng·h/mL

**Q.** And the T1/2 ([2]; male, 0.05 mg/kg)?
**A.** 9.66 h

**Q.** What about the AUCTlast ([2]; male, 0.5 mg/kg) of the same molecule?
**A.** 45.5 ng·h/mL

**Q.** And the T1/2 ([2]; male, 0.5 mg/kg)?
**A.** 6.89 h

**Q.** What about the “AUC(0-inf)” value ([2]; male, 1.5 mg/kg) of the same molecule?
**A.** 192 ng·h/mL

**Q.** What about the AUCTlast ([2]; male, 1.5 mg/kg) of the same molecule?
**A.** 183 ng·h/mL

**Q.** What about the Cmax ([2]; male, 1.5 mg/kg) of the same molecule?
**A.** 18.0 ng/mL

**Q.** And the T1/2 ([2]; male, 1.5 mg/kg)?
**A.** 5.27 h

**Q.** What about the Tmax ([2]; male, 1.5 mg/kg) of the same molecule?
**A.** 1.00 h

**Q.** And the “AUC(0-inf)” value ([2]; male, 3 mg/kg)?
**A.** 518 ng·h/mL

**Q.** What about the AUCTlast ([2]; male, 3 mg/kg) of the same molecule?
**A.** 476 ng·h/mL

**Q.** What about the Cmax ([2]; male, 3 mg/kg) of the same molecule?
**A.** 42.7 ng/mL

**Q.** What about the T1/2 ([2]; male, 3 mg/kg) of the same molecule?
**A.** 6.48 h

**Q.** What about the Tmax ([2]; male, 3 mg/kg) of the same molecule?
**A.** 1.00 h

**Q.** And the AUCTlast ([2]; male, 5 mg/kg)?
**A.** 741 ng·h/mL

**Q.** And the T1/2 ([2]; male, 5 mg/kg)?
**A.** 7.67 h
